# Experimental data reported in US6949556B2, “Acylated 1,2,3,4-tetrahydronaphthyl amines and their use as pharmaceutical agents” (Aventis Pharma Deutschland GmbH, priority 2001, dated 2005).
# Target: eNOS promoter
# Experiment: Activation of eNOS transcription (eNOS promoter firefly luciferase reporter)
# Format: cell-based
# Settings: EC50 of transcription induction ratio (TIR) vs compound concentration, determined graphically; stably transfected human endothelial cell line, 18 h incubation
# Experimental: Activation of eNOS transcription was measured as described in detail in Li et al. “Activation of protein kinase C alpha and/or epsilon enhances transcription of the human endothelial nitric oxide synthase gene”, Mol. Pharmacol. 1998; 53: 630-637. Briefly, a 3.5 kB long fragment 5′ of the starting codon of the eNOS gene was cloned, sequenced and cloned in firefly luciferase expression plasmids to monitor activation of the eNOS promoter by reporter gene activity. A human endothelial cell line stable transfected and expressing this promoter-reporter construct was used for compound testing. Cells were incubated for 18 h with compounds.
# All compounds were dissolved in sterile DMSO. A final concentration of 0.5% DMSO in complete medium was allowed. Induction of reporter gene expression in these cells was measured using a standard luciferase assay system (Promega, Cat. No E150) according to the manufacturer's instructions. Luciferase induction in cells incubated with compounds were compared to those incubated with solvent alone. The ratio of both activities (transcription induction ratio, TIR) was plotted as a function of compound concentration. Typically, TIR values started at low concentrations at a ratio of 1, indicating no compound effect, and extended up to a maximum TIR value TIR(max) which indicates the increase of the eNOS transcription. EC50 values of transcription induction ratios as a function of compound concentration were determined graphically.
row,EC50 [µM],SMILES
1,35.2,"O=C(N[C@@H]1CCc2ccccc2C1)c1cc2sccc2nc1C(F)(F)F [Compound 47, 5-Trifluoromethyl-thieno[3,2-b]pyridine-6-carboxylic acid-N-(R)-(1,2,3,4-tetrahydro-naphthalen-2-yl)-amide]"
2,1.1,"Cc1nc(C(F)(F)F)ccc1C(=O)N[C@H]1CCc2ccccc2C1 [Compound 55, 2-Methyl-N-(S)-1,2,3,4-tetrahydro-naphthalen-2-yl-6-trifluoromethyl-nicotinamide]"
3,16,Cc1nc(-c2ccccc2)sc1C(=O)N[C@H]1CCc2ccccc2C1 [Compound 42]
4,4.47,"O=C(N[C@@H]1CCc2ccccc2C1)c1cncc(-c2cccs2)c1 [Compound 62, N-(R)-1,2,3,4-Tetrahydro-naphthalen-2-yl-5-thiophen-2-yl-nicotinamide]"
5,15.1,"O=C(N[C@H]1CCc2ccccc2C1)c1ccc2[nH]nnc2c1 [Compound 26, 1H-Benzotriazole-5-carboxylic acid N-(S)-(1,2,3,4-tetrahydro-naphthalen-2-yl)-amide]"
6,24.7,"Cc1ccc(C(=O)N[C@H]2CCc3ccccc3C2)cn1 [Compound 20, 6-Methyl-N-(S)-1,2,3,4-tetrahydro-naphthalen-2-yl-nicotinamide]"
7,4.55,"O=C(N[C@@H]1CCc2ccccc2C1)c1ccc2[nH]nnc2c1 [Compound 25, 1H-Benzotriazole-5-carboxylic acid N-(R)-(1,2,3,4-tetrahydro-naphthalen-2-yl)-amide]"
8,24.6,"O=C(N[C@@H]1CCc2ccccc2C1)c1ccc(C(F)(F)F)nc1 [Compound 50, N-(R)-1,2,3,4-Tetrahydro-naphthalen-2-yl-6-trifluoromethyl-nicotinamide]"
9,10.5,"Cc1nc(C)c(C(=O)N[C@@H]2CCc3ccccc3C2)s1 [Compound 29, 2,4-Dimethyl-thiazole-5-carboxylic acid N-(R)-(1,2,3,4-tetrahydro-naphthalen-2-yl)-amide]"
10,24.4,"Cc1nc2cc(C(=O)N[C@@H]3CCc4ccccc4C3)ccc2[nH]1 [Compound 52, 2-Methyl-1H-benzoimidazole-5-carboxylic acid N-(R)-(1,2,3,4-tetrahydro-naphthalen-2-yl)-amide]"
11,0.33,"Cc1cnc(C(=O)N[C@H]2CCc3ccccc3C2)cn1 [Compound 36, 5-Methyl-pyrazine-2-carboxylic acid N-(S)-(1,2,3,4-tetrahydro-naphthalen-2-yl)-amide]"
12,8.82,"O=C(N[C@H]1CCc2ccccc2C1)c1cccc2[nH]ccc12 [Compound 22, 1H-Indole-4-carboxylic acid-N-(S)-(1,2,3,4-tetrahydro-naphthalen-2-yl)-amide]"
13,4.12,"COc1ccc(-n2ncc(C(=O)N[C@@H]3CCc4ccccc4C3)c2C)cc1 [Compound 60, 1-(4-Methoxy-phenyl)-5-methyl-1H-pyrazole-4-carboxylic acid N-(R)-(1,2,3,4-tetrahydro-naphthalen-2-yl)-amide]"
14,15.2,"O=C(N[C@@H]1CCc2ccccc2C1)c1onc2ccccc12 [Compound 64, Benzo[c]isoxazole-3-carboxylic acid N-(R)-(1,2,3,4-tetrahydro-naphthalen-2-yl)-amide]"
15,7,"O=C(N[C@@H]1CCc2ccccc2C1)c1cnn(-c2ccc(Cl)cc2)c1C(F)(F)F [Compound 33, 1-(4-Chloro-phenyl)-5-trifluoromethyl-1H-pyrazole-4-carboxylic acid N-(R)-(1,2,3,4-tetrahydro-naphthalen-2-yl)-amide]"
